1 sequence from patent US4002740A, “Tridecapeptide compositions and methods” (priority 1975, dated 1977) can be followed below.

Assay [1] has as its system Thy-1+ T cell differentiation from prothymocytes (spleen cell populations from nu/nu mice). The assay can be described thus: induction in vitro of Thy-1+ T cell differentiation from prothymocytes (acquisition of Thy-1.2 as marker). Particulars: for induction of T cell differentiation (qualitative): induction assay in vitro, no concentration stated. In kind it is cell-based. The procedure:
(§1) to determine the activity and characteristics of the polypeptide, determinations were carried out on healthy 5-6 week old nu/nu mice of both sexes, the mice being bred on a BALB/c background (thymocytes expressing Thy-1.2 surface antigen) and maintained under conventional conditions. For the antisera, anti Thy-1.2 sera were prepared in Thy-1 congenic mice.
(§2) For the induction of in vitro of Thy-1^+ T cell or CR^+ B cell differentiation, the induction of thymocyte differentiation from prothymocytes in vitro was performed as described by Komuro and Boyse, (Lancet 1, 740, 1973), using the acquisition of Thy-1.2 as a marker of T cell differentiation. The induction of CR^+ B cell differentiation from CR^- B cell precursors in vitro was performed under similar conditions using as the assay criterion, the capacity of CR^+ B cells to bind sheep erythrocytes coated with subagglutinating quantities of rabbit antibody and nonlytic complement. Spleen cell populations from healthy nu/nu mice fractionated on discontinuous bovine serium albumin gradients were used as the source of both precursor types (Thy-1 and […]) because they have few or no Thy-1^+ cells and low numbers of CR^+ cells.

In assay [2] the test system is CR+ B cell differentiation from CR- B cell precursors (spleen cell populations from nu/nu mice). Description: induction in vitro of CR+ B cell differentiation from CR- B cell precursors (binding of sheep erythrocytes coated with antibody and complement). In kind it is cell-based. The procedure: as §1, §2

“Also recorded” adds a separate entry of the source. Ends that are not written are not given here.

With “GEQRKDVYVQLYL [tridecapeptide, H2 N--Gly--Glu--Gln--Arg--Lys--Asp--Val--Tyr--Val--Gln--Leu--Tyr--Leu--COOH]”, the “concentration from which the polypeptide is maximally active” value in assay [1] (in vitro) is “about 100 nanogram per ml”. Further, the “concentration from which the polypeptide is active” value in assay [1] (in vitro, lower end of active concentrations) stood at 1 nanogram per ml. In addition, the “induction of T cell differentiation (qualitative)” value is recorded as “inducing the differentiation of T-lymphocytes” in assay [1] (listed as polypeptide) and “induced the differentiation” in assay [1] (listed as synthetic peptide). The “induction of differentiation of CR+ B cells” value in assay [2] (in vitro, concentrations 0.01 ng to 10 μg/ml) is listed as “does not induce; also recorded: did not induce”. Besides, the “induction of CR+ B cell differentiation (qualitative)” value in assay [2] (induction assay in vitro, no concentration stated, listed as synthetic peptide) is recorded as “did not induce”.
